According to patent publication US20090012130A1, “Strategies for Designing Drugs that Target the Sir2 Family of Enzymes” (priority 2005, published 2009):
“Also recorded” adds a separate entry of the source.

Assays:
Sir2Tm wild type [1] = target: T1, Sir2Tm wild type (Thermotoga maritima, UniProt Q9WYW0); assay type: biochemical; parameters: made in house; host or cells: E. coli
Procedure: (§1) The deacetylation activity was measured using the Fluor de Lys-SirT1 assay (Biomol), using a peptide containing amino acids 379-RHK-K(Ac)-382 of p53 as substrate. […] The reactions were carried out at 37° C. in a 50 μL reaction volume containing 50 mM Tris, pH 8, 50 mM NaCl and 400 μM fluorolabeled peptide (˜10 times KM). […] Reactions were done at least in triplicate. The data were fitted to the Michaelis-Menten equation using SigmaPlot to obtain the kinetic constants. […] The data were fitted to equation (1) using SigmaPlot (SYSTAT) to calculate the IC50 values:
(§2) vI=v0(1−(I/(IC50+I))) Equation (1)
(§3) where v0 is the initial rate of the uninhibited reaction and vI is the initial rate of the reaction at concentration I of inhibitor.

Sir2Tm-D101N mutant [2] = target: T2, Sir2Tm-D101N mutant (Thermotoga maritima, UniProt Q9WYW0, D101N); experiment: biochemical; assay type: biochemical; parameters: made in house; host or cells: E. coli; conditions: for apparent kcat of cosubstrate-dependent deacetylation / Km / IC50: Sir2Tm-D101N mutant; for Km: 400 μM fluorolabeled peptide, read-out: apparent KM for cosubstrate; for IC50: fluorolabeled p53 peptide, 37° C.
Procedure: as §1, §2, §3

Sir2Tm wild type [3] = target: T1, Sir2Tm wild type; conditions: 0.1 mM ^14C-labelled base, 2 mM NAD^+, 500 μM acetylated p53 peptide, 37° C., 3 hours
Procedure: (§4) After incubation at 37° C. for 3 hours, 8 μL of each reaction was spotted on a Polygram SIL-G TLC plate (Machevey-Nagel, 20×20). The plate was developed in a pre equilibrated chamber with 80:20 ethanol:2.5 M ammonium acetate. After chromatography, the plate was air dried and exposed to a phosphorimaging screen overnight.

Sir2Tm-D101N mutant [4] = target: T2, Sir2Tm-D101N mutant; conditions: Sir2Tm-D101N mutant 2.5 mg/mL; 0.1 mM ^14C-labelled base, 2 mM NAD^+, 500 μM acetylated p53 peptide, 37° C., 3 hours
Procedure: as §4

T2 sequence (Q9WYW0 whole entry D101N): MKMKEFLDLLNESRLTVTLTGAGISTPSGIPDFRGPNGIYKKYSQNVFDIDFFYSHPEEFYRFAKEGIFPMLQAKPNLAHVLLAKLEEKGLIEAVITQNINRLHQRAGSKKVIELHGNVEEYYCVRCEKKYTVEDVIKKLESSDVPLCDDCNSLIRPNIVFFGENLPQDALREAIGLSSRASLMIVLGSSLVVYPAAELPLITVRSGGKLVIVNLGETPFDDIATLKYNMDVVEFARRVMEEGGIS
T1 sequence (Q9WYW0 whole entry, the tested form may be a part): as the sequence (Q9WYW0 whole entry D101N) above, with N101D counted along it

| Compound | apparent kcat of cosubstrate-dependent deacetylation (Sir2Tm-D101N mutant [2]) | Km (Sir2Tm-D101N mutant [2]) | base exchange activity (formation of labelled dinucleotide) (Sir2Tm wild type [3]) | base exchange activity (formation of labelled dinucleotide) (Sir2Tm-D101N mutant [4]) | further results |
| --- | --- | --- | --- | --- | --- |
| Nc1ncnc2c1ncn2[C@@H]1O[C@H](COP(=O)(O)OP(=O)(O)OC[C@H]2O[C@@H]([n+]3cccc(C(=O)O)c3)[C@H](O)[C@@H]2O)[C@@H](O)[C@H]1O [NAAD, nicotinic acid adenine dinucleotide] | (1.1±0.1)×10^−3 s^−1 | 617 ± 43 µM | – | – | deacetylation activity with the dinucleotide as cosubstrate (Sir2Tm wild type [1]; up to 2.56 mg/ml enzyme, incubation 4 hours): no detectable deacetylation activity; also recorded: undetectable |
| NC(=O)c1ccc[n+]([C@@H]2O[C@H](COP(=O)([O-])OP(=O)(O)OC[C@H]3O[C@@H](n4cnc5c(N)ncnc54)[C@H](O)[C@@H]3O)[C@@H](O)[C@H]2O)c1 [NAD^+, nicotinamide adenine dinucleotide] | (1.8±0.1)×10^−3 s^−1 | 1170 ± 180 µM | – | – | kcat of cosubstrate-dependent deacetylation (Sir2Tm wild type [1]): 0.170 ± 0.006 s⁻¹; Km (Sir2Tm wild type [1]; 400 μM fluorolabeled peptide, read-out: KM for cosubstrate): 53 ± 11 µM; fold increase of KM, D101N mutant versus wild type (Sir2Tm-D101N mutant [2]; Sir2Tm-D101N versus wild type Sir2Tm): 22 fold |
| NC(=O)c1cccnc1 [nicotinamide] | – | – | could catalyze formation of labeled NAD^+ | could catalyze formation of labeled NAD^+ | – |
| O=C(O)c1cccnc1 [nicotinic acid] | – | – | cannot do; also recorded: no detectable formation of NAAD | able to synthesize ^14C-labelled NAAD | inhibition of wild type enzyme deacetylation activity (Sir2Tm wild type [1]; inhibitor added to concentrations of up to 100 mM): fail to inhibit; IC50 (Sir2Tm-D101N mutant [2]; IC50, inhibition of NAAD-dependent deacetylation activity, 2 mM NAAD): 6.2 ± 2 mM; IC50 (Sir2Tm-D101N mutant [2]; IC50, inhibition of NAD^+-dependent deacetylation activity, 2 mM NAD^+): 11.3 ± 3.3 mM |
